Measured values from patent US20210386367A1, “DEVICES AND SYSTEMS FOR GASTROINTESTINAL MICROBIOME DETECTION AND MANIPULATION” (Progenity, Inc., priority 2018, published 2021).
≈ marks a conversion by molar mass, not a printed value.

Assays:
Format in all cases: cell-based
Escherichia coli = assay: Spontaneous mutation frequency and mutation prevention concentration (MPC)
Excerpt: (§1) As used herein, “spontaneous mutation frequency” refers to the rate at which mutations arise in a bacterium that can lead to resistance to develop to an antimicrobial agent. “Mutation prevention concentration” or “MPC” refers to the lowest concentration of antimicrobial agent above which the selective proliferation of resistant mutants is expected to occur only rarely.

S. pneumonia = assay: as above; details: S. pneumoniae ATCC 49619
Excerpt: as §1

B. vulgatus = assay: as above; details: B. vulgatus ATCC 8482
Excerpt: as §1

Enterobacter aerogenes = assay: Broth microdilution MIC, 50 clinical isolates
Outline: (§2)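 CLSI broth microdilution in cation-adjusted Mueller Hinton broth, with 3% lysed horse blood added for streptococci. Two-fold dilutions, inoculum ~5×10^5 CFU/mL, 35° C for 16-24 hr in ambient air (streptococci with CO2 planchets). MIC = lowest concentration inhibiting visible growth.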

Pseudomonas aeruginosa = assay: Broth microdilution MIC, 50 clinical isolates
Outline: as §2

Proteus mirabilis = assay: Broth microdilution MIC, 50 clinical isolates
Outline: as §2

[1] = E. coli ATCC 25922, rifaximin selection 4X MIC, 32 μg/mL
[2] = E. coli ATCC 25922, rifaximin selection 8X MIC, 64 μg/mL
[3] = E. coli ATCC 35218, rifaximin selection 4X MIC, 32 μg/mL, estimated by counting a quarter of the plate
[4] = E. coli ATCC 35218, rifaximin selection 8X MIC, 64 μg/mL, estimated by counting a quarter of the plate
[5] = E. coli MMX 1312, rifaximin selection 4X MIC, 16 μg/mL
[6] = E. coli MMX 1312, rifaximin selection 8X MIC, 32 μg/mL
[7] = rifaximin selection 4X MIC, 0.5 μg/mL
[8] = rifaximin selection 8X MIC, 1 μg/mL

CO[C@H]1/C=C/O[C@@]2(C)Oc3c(C)c(O)c4c(O)c(c5c(nc6cc(C)ccn65)c4c3C2=O)NC(=O)/C(C)=C\C=C\[C@H](C)[C@H](O)[C@@H](C)[C@@H](O)[C@@H](C)[C@H](OC(C)=O)[C@@H]1C [rifaximin]
MFC (Escherichia coli; E. coli ATCC 25922): >64 µg/mL | Average Count (Escherichia coli; [1]): TNTC | Count 1 (Escherichia coli; [1]): TNTC | Count 2 (Escherichia coli; [1]): TNTC | Spontaneous Mutation Frequency (Escherichia coli; E. coli ATCC 25922, rifaximin selection 4X MIC, 32 μg/mL, based on estimated count of >500 average CFU): >2.24 × 10^−8 | Average Count (Escherichia coli; [2]): TNTC | Count 1 (Escherichia coli; [2]): TNTC | Count 2 (Escherichia coli; [2]): TNTC | Spontaneous Mutation Frequency (Escherichia coli; E. coli ATCC 25922, rifaximin selection 8X MIC, 64 μg/mL, based on estimated count of >500 average CFU): >2.24 × 10^−8 | MFC (Escherichia coli; E. coli ATCC 35218): >64 µg/mL | Spontaneous Mutation Frequency (Escherichia coli; E. coli ATCC 35218, rifaximin selection 4X MIC, 32 μg/mL): 2.37 × 10^−8 | Average Count (Escherichia coli; [3]): 688^2 CFU | Count 2 (Escherichia coli; [3]): 600^1 CFU | Spontaneous Mutation Frequency (Escherichia coli; E. coli ATCC 35218, rifaximin selection 8X MIC, 64 μg/mL): 1.15 × 10^−8 | Average Count (Escherichia coli; [4]): 332^1 CFU | Count 1 (Escherichia coli; [4]): 360^1 CFU | Count 2 (Escherichia coli; [4]): 304^1 CFU | MFC (Escherichia coli; E. coli MMX 1312): >32 µg/mL | Average Count (Escherichia coli; [5]): TNTC | Count 1 (Escherichia coli; [5]): TNTC | Count 2 (Escherichia coli; [5]): TNTC | Spontaneous Mutation Frequency (Escherichia coli; E. coli MMX 1312, rifaximin selection 4X MIC, 16 μg/mL, based on estimated count of >500 average CFU): >2.06 × 10^−8 | Average Count (Escherichia coli; [6]): TNTC | Count 1 (Escherichia coli; [6]): TNTC | Count 2 (Escherichia coli; [6]): TNTC | Spontaneous Mutation Frequency (Escherichia coli; E. coli MMX 1312, rifaximin selection 8X MIC, 32 μg/mL, based on estimated count of >500 average CFU): >2.06 × 10^−8 | MFC (S. pneumonia): >0.25 µg/mL | MFC (B. vulgatus): >1 µg/mL | Average Count (B. vulgatus; [7]): 5 CFU | Count 1 (B. vulgatus; [7]): 6 CFU | Count 2 (B. vulgatus; [7]): 4 CFU | Spontaneous Mutation Frequency (B. vulgatus; [7]): 8.70 × 10^−10 | Average Count (B. vulgatus; [8]): 4 CFU | Count 1 (B. vulgatus; [8]): 2 CFU | Count 2 (B. vulgatus; [8]): 5 CFU | Spontaneous Mutation Frequency (B. vulgatus; [8]): 6.96 × 10^−10 | MIC50 (Enterobacter aerogenes): 16 µg/mL (≈ 20.4 µM) | MIC90 (Enterobacter aerogenes): 64 µg/mL (≈ 81.4 µM) | Mode (Enterobacter aerogenes): 16 µg/mL | Cumulative percentage of isolates inhibited at MIC (Enterobacter aerogenes; 8 μg/mL): 20.0% | Number of test isolates at MIC (Enterobacter aerogenes; 8 μg/mL): 10 | Cumulative percentage of isolates inhibited at MIC (Enterobacter aerogenes; 16 μg/mL): 64.0% | Number of test isolates at MIC (Enterobacter aerogenes; 16 μg/mL): 22 | Cumulative percentage of isolates inhibited at MIC (Enterobacter aerogenes; 32 μg/mL): 88.0% | Number of test isolates at MIC (Enterobacter aerogenes; 32 μg/mL): 12 | Cumulative percentage of isolates inhibited at MIC (Enterobacter aerogenes; 64 μg/mL): 98.0% | Number of test isolates at MIC (Enterobacter aerogenes; 64 μg/mL): 5 | Cumulative percentage of isolates inhibited at MIC (Enterobacter aerogenes; >64 μg/mL): 100.0% | Number of test isolates at MIC (Enterobacter aerogenes; >64 μg/mL): 1 | MIC50 (Pseudomonas aeruginosa): 8 µg/mL (≈ 10.2 µM) | MIC90 (Pseudomonas aeruginosa): 16 µg/mL (≈ 20.4 µM) | Mode (Pseudomonas aeruginosa): 8 µg/mL | Cumulative percentage of isolates inhibited at MIC (Pseudomonas aeruginosa; 4 μg/mL): 16.0% | Number of test isolates at MIC (Pseudomonas aeruginosa; 4 μg/mL): 8 | Cumulative percentage of isolates inhibited at MIC (Pseudomonas aeruginosa; 8 μg/mL): 66.0% | Number of test isolates at MIC (Pseudomonas aeruginosa; 8 μg/mL): 25 | Cumulative percentage of isolates inhibited at MIC (Pseudomonas aeruginosa; 16 μg/mL): 94.0% | Number of test isolates at MIC (Pseudomonas aeruginosa; 16 μg/mL): 14 | Cumulative percentage of isolates inhibited at MIC (Pseudomonas aeruginosa; 32 μg/mL): 96.0% | Number of test isolates at MIC (Pseudomonas aeruginosa; 32 μg/mL): 1 | Cumulative percentage of isolates inhibited at MIC (Pseudomonas aeruginosa; 64 μg/mL): 98.0% | Number of test isolates at MIC (Pseudomonas aeruginosa; 64 μg/mL): 1 | Cumulative percentage of isolates inhibited at MIC (Pseudomonas aeruginosa; >64 μg/mL): 100.0% | Number of test isolates at MIC (Pseudomonas aeruginosa; >64 μg/mL): 1 | MIC50 (Proteus mirabilis): 4 µg/mL (≈ 5.09 µM) | MIC90 (Proteus mirabilis): 8 µg/mL (≈ 10.2 µM) | Mode (Proteus mirabilis): 4 µg/mL | Cumulative percentage of isolates inhibited at MIC (Proteus mirabilis; 4 μg/mL): 84.0% | Number of test isolates at MIC (Proteus mirabilis; 4 μg/mL): 42 | Cumulative percentage of isolates inhibited at MIC (Proteus mirabilis; 8 μg/mL): 96.0% | Number of test isolates at MIC (Proteus mirabilis; 8 μg/mL): 6 | Cumulative percentage of isolates inhibited at MIC (Proteus mirabilis; >64 μg/mL): 100.0% | Number of test isolates at MIC (Proteus mirabilis; >64 μg/mL): 2
